Tested on: patients suffering hair loss and numbness due to diabetic neuropathy
Test: Repetitive topical application of minoxidil in patients suffering hair loss and numbness due to diabetic neuropathy
Format: in vivo
Conditions: twice a day, approximately 1 mL per day, 2-5% minoxidil
Protocol: In an illustrative test with repetitive topical application of minoxidil as a VGIA 120a in patients suffering hair loss and numbness due to diabetic neuropathy, hair growth, nail growth, and temperature perception (restoration of innervation) was achieved on the leg within 2-3 weeks. The minoxidil was applied twice a day in a quantity of approximately 1 mL per day in a concentration of 2-5% minoxidil.

Nc1cc(N2CCCCC2)nc(N)[n+]1[O-] [minoxidil]
2-3 weeks: hair growth achieved on the leg (time) | temperature perception (restoration of innervation) achieved on the leg (time) | nail growth achieved (time) (leg)

Reference: US20260007667A1, “TOPICAL ECTODERMAL STIMULATION” (SOLIFON PHARMACEUTICALS, INC., priority 2022, published 2026)
